Molecular target: Has1p (Saccharomyces cerevisiae, UniProt Q03532)
Test: malachite green ATPase assay, ADP competition
Type: biochemical
Settings: 1 mM ADP with 1 mM ATP; total yeast RNA; pH 6.5; 2 mM MgCl2; 30°C; data not shown

Sequence of Has1p (Q03532 whole entry): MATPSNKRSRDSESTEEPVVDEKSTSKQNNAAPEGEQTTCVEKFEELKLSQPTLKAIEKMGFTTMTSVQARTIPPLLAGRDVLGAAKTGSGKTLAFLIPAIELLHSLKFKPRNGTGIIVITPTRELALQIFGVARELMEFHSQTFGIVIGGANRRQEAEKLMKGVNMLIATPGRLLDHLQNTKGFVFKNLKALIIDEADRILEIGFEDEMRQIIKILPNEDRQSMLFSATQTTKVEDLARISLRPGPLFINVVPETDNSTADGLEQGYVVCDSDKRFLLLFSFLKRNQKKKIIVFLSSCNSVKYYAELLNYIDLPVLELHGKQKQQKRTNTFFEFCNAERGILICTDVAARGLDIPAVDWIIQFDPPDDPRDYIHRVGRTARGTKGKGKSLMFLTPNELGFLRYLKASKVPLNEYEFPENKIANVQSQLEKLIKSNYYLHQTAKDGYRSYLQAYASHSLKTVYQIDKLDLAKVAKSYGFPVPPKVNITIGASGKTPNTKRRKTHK

fold reduction of ATPase activity at 1 mM ADP: 5 fold
Compound: Nc1ncnc2c1ncn2[C@@H]1O[C@H](COP(=O)(O)OP(=O)(O)O)[C@@H](O)[C@H]1O [ADP]
